Test results from patent publication US5661138A, “(o-Acyl-p-N-acylamino-phenyl)-O-phosphoethanolamines” (Clarion Pharmaceutical, Inc., priority 1996, dated 1997).

Assays:
[1] = tested on: Mouse Macrophage RAW 264.7; test: In Vitro Chemiluminescence Assay: inhibition of respiratory burst in PMA-stimulated mouse macrophage RAW 264.7; assay type: cell-based
Description: The cells are capable of phagocytosis and undergo an oxidative burst in response to appropriate signals. Agents that inhibit the activation of these cell in vitro are therefore inhibitors of critical steps in inflammatory processes.
Activation of macrophages and other phagocytic cell types initiates a cascade of actions that include increased oxygen consumption (respiratory burst) and production of oxygen radicals. These events can be measured m a variety of ways, including chemiluminescence based on the addition of luminol (see M. A. Trush et al, (1978), The generation of chemiluminescence by phagocytic cells, Methods in Enzymology 56:462-494). Because chemiluminescence is induced by the increased production of oxygen radicals that are thought to be important in intracellular killing of bacteria, chemiluminescence has long been used as an index of phagocytic cell activity. In addition, oxygen radical production is associated with inflammatory responses and may have adverse consequences in non-infectiousinflammation. For this reason, macrophage activation is of critical importance in studies of the inflammatory process. Agents that reduce macrophage activation are likely to have utility as anti-inflammatory agents.
1. Cell line: Raw 264.7 (ATCC TIB-71, attachment dependent).
2. Culture medium: Dulbecco's Modified Eagle's Medium (DMEM) with 10% Fetal Bovine Serum (FBS).
3. Standard protocol for culturing cell lines: in T-75 or T-150 flasks; 37° C.; 95% air, 5% CO2; 100% humidity;
a. Cell line is passaged when approximately 80% confluent; with trypsin (1 mg/mL) and ethylenediaminetetraacetic acid (EDTA) (1 mM in Ca-Mg free Hank's balanced salt solution); at a 1:4 to 1:5 split;
b. All procedures are performed aseptically in a class II biological safety cabinet using standard BL-2 containment procedures. In order to prevent genetic drift in stock cell lines, fresh cultures are prepared at approximately monthly intervals with cells thawed from liquid nitrogen storage.
a. After cell passage, count cells with a hemacytometer;
b. Adjust cell concentration to approximately 1,000,000 cells per mL;
c. Suspend cells in DMEM lacking phenol red and without FBS;
d. Pipette 1 mL of cell suspension into a standard luminometer cuvette (12×75 mm), commercially obtainable from Analytical Luminescence Laboratories, San Diego, Calif., USA;
e. Add luminol to final concentration of 0.2 mM;
f. Add test compound dissolved in phosphate buffered saline (PBS) for final concentration levels ranging from 0 to 10 μM;
g. Add 100 nanograms of phorbol myristate acetate (PMA): and
h. Wait 1 minute and read photo counts (i.e., luminescence) on a Monolight 2010 luminometer available from Analytical Luminescence Laboratories, San Diego.
Background--no test compound present; no PMA present;
Control--no test compound present;
Calculate: [formula] where L is luminescence. 6.

[2] = tested on: PMA-induced inflammation in mouse ears; test: In Vivo Assay--Mouse Ear model, PMA-induced inflammation; parameters: species or system mouse (male CD-1); conditions: concentration tested 5%, topical to ear, 6 hours; FIG. 1
Experimental: A common in vivo model for the evaluation of anti-inflammatory agents is PMA-induced inflammation in mouse ears. This method is described in "Pharmacological Methods in the Control of Inflammation," Joseph Y. Chang and Alan J. Lewis (eds), Alan R. Liss, Inc., New York, pp 221-223 (1989). In this assay, edema, which is a characteristic of inflammation, is quantified by determining ear thickness or ear weight approximately 6 hours after applying PMA to the ear.
1. Mice: Male CD-1, 21-24 g (Product Number 3002) obtainable from Harlan Sprague Dawley, Indianapolis, Ind., USA.
a. Prepare 0.01% (w/v) PMA in a mixture of equal volumes of acetone and ethanol;
b. Prepare 0.01% (w/v) PMA and 5% (w/v) test compound in a mixture of equal volumes of acetone and ethanol;
c. Divide 12 mice into 4 groups of 3 mice each;
d. Treat the first group of mice by applying 20 μL of a mixture of equal volumes of acetone and ethanol (vehicle) to the left ear using a micropipetter;
e. Treat the second group of mice by applying 20 μL of PMA solution to the left ear;
f. Treat the other two groups of mice by applying 20 μL of PMA/test compound solution to the left ear;
g. Wait 6 hours and euthanize the mice in a CO2 chamber;
h. Cut the ears and punch out circles of 6-mm diameter; and
i. Measure the weight of three appropriate ear punches in the same group together.

[3] = tested on: carrageenan-induced paw edema in the rat; test: In Vivo Assay--Rat Carrageenan-Induced Paw Edema; parameters: species or system rat (male Sprague-Dawley); conditions: intraperitoneal, 6 hours; FIG. 3
Description: The model, which provides a tool for investigating the effect of compounds on paw intimation, is described in the following reference: Bartlett, R. R., et al. (1993), "Effects of leflunomide on immune responses and models of inflammation," Springer Semin Immunopathol 14:381-394. It essentially consists of the following:
1. Rats: Male Sprague-Dawley, approximately 165 g obtainable from Harlan Sprague Dawley, Indianapolis, Ind., USA;
a. Measure the volume of the left hind paw by strain gauge/fluid immersion;
b. Inject 100 μL of 1% carrageenan in saline intradermally into the left hind foot pad;
c. Inject vehicles or test compounds dissolved in either saline (CPR-2015) or 50% saline and 50% ethanol (indomethacin, dexamethasone, and CPR-2014) intraperitoneally, placing 3-5 rats in each treatment group;
d. Six hours later, measure the volume of the left hind paw by strain gauge/fluid immersion;
e. Calculate average percent increase in paw volume for each treatment group.

[4] = tested on: TNB-induced inflammation in rat colon; test: In Vivo Assay--Rat Ulcerative Colitis Model (TNB-induced); parameters: species or system rat (male Sprague-Dawley); conditions: 150 mg/kg, rectal, once a day for 5 days; FIG. 2
Description: The model described in this section provides a tool for investigating the effect of compounds in colonic intimation. This model and the experimental methods are described in the following reference: Luck, Michael S. and Bass, Paul, (1993), "Effect of Epidermal Growth Factor on Experimental Colitis in the Rat," J. Pharmacol. Exp. Therap. 264:984-990. In this assay, inflammatory lesions in the rat colon are induced by the intracolonic administration of 2,4,6-trinitrobenzenesulfonic acid.
1. Rats: Male Sprague-Dawley, 185-195 g obtainable from Harlan Sprague Dawley, Indianapolis, Ind., USA;
a. Prepare 100 mg/mL 5-aminosalicylic acid (5-ASA), 50 mg/mL CPR-2015, and 150 mg/mL CPR-2015 in saline;
b. Divide 34 rats into 4 groups of 8 rats each and one group of two rats;
c. Leave the group with two rats completely untreated;
d. Treat the other four groups of rats with 200 μl of Saline, 500 μl of 100 mg/mL 5-ASA, 200 μl of 50 mg/mL CPR-2015, or 200 μl of 150 mg/mL CPR-2015. These treatments are administered rectally with an 8-cm catheter;
e. After one hour, treat the above four groups of rats rectally with 500 μl of 100 mg/mL 2,4,6-trinitrobenzenesulfonic acid (TNB) in 30% ethanol and 70% saline;
f. Repeat the treatments described in paragraph 2(d) once a day for a total of 5 days;
g. On the 6th day, euthanize the rates in a CO2 chamber; and
h. […]

| SMILES | inhibition at 0.1 µM ([1]; Mus musculus, RAW264.7, Concentration 0.1 µM, PMA-stimulated RAW 264.7, luminol chemiluminescence) [%] | inhibition at 0.3 µM ([1]; Mus musculus, RAW264.7, Concentration 0.3 µM, PMA-stimulated RAW 264.7, luminol chemiluminescence) [%] | inhibition at 1 µM ([1]; Mus musculus, RAW264.7, Concentration 1 µM, PMA-stimulated RAW 264.7, luminol chemiluminescence) [%] | inhibition at 3 µM ([1]; Mus musculus, RAW264.7, Concentration 3 µM, PMA-stimulated RAW 264.7, luminol chemiluminescence) [%] | inhibition at 10 µM ([1]; Mus musculus, RAW264.7, Concentration 10 µM, PMA-stimulated RAW 264.7, luminol chemiluminescence) [%] | inhibition of PMA-induced macrophage activation ([1]; at concentrations above 0.3 μM) | inhibition of PMA-induced inflammation in mouse ear [2] | inhibition of carrageenan-induced edema in rat paw [3] | inhibition of TNB-induced inflammation in rat colon [4] |
| --- | --- | --- | --- | --- | --- | --- | --- | --- | --- |
| CCCCCCCCCCCCCCCC(=O)Nc1ccc(OP(=O)([O-])OCC[N+](C)(C)C)c(C(C)=O)c1 [CPR-2015, (o-acetyl-p-N-hexadecanamido-phenyl)-O-phosphocholine] | 13 | 63 | 94 | 97 | 99 | marked inhibition | completely inhibited | marked inhibition | marked inhibition |
| CCCCCCCCCCCCCCCC(=O)Nc1ccc(O)c(C(C)=O)c1 [CPR-2014, 1-(5-hexadecanamido-2-hydroxy-phenyl)-ethanone] |  |  |  |  |  |  | partially inhibited | marked inhibition |  |
